Results taken from PubChem BioAssay (NCI).
Where “and” joins values, the source holds several entries; their conditions need not be identical. Equal entries are not always repeated.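 Growth conditions: 96-well plates. Treatment: test compound, 48 hours, 5 concentrations. Analysis: linear interpolation between bracketing concentrations; unreached endpoints set to highest concentration. GI50 marks 50% less growth. TGI marks complete inhibition of growth.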

How the values were obtained:
Experiment in all cases: NCI tumour cell line growth inhibition, 48 h
[1] = test system: A549 NSCLC
[2] = test system: HS 578T breast
[3] = test system: MALME-3M melanoma
[4] = test system: NCI/ADR-RES ovarian
[5] = test system: SF-295 CNS
[6] = test system: SN12C renal
[7] = test system: SR leukemia
[8] = test system: SW-620 colon
[9] = test system: U251 CNS
[10] = test system: UACC-62 melanoma

Compound | GI50 [1] | TGI [1] | GI50 [2] | TGI [2] | GI50 [3] | TGI [3] | GI50 [4] | TGI [4] | GI50 [5] | TGI [5] | GI50 [6] | TGI [6] | GI50 [7] | TGI [7] | GI50 [8] | TGI [8] | GI50 [9] | TGI [9] | GI50 [10] | TGI [10]
CC(=O)c1c(C)[nH]c(-c2nc3ccc(N4CCN(C)CC4)cc3[nH]2)c1-c1ccc(N(C)C)cc1 | 1.04 µM | > 48.4 µM | 0.396 µM | 7.23 µM | 0.812 µM | 5.1 µM | 0.916 µM | > 100 µM | 1.55 µM | 14.8 µM | 1.76 µM | 43.1 µM | 0.923 µM | 6.81 µM | 2.15 µM | 25.5 µM | 2.11 µM | > 65.5 µM | 0.175 µM | 13 µM
Cc1nc2ccccc2c(/C=C/c2ccc(Cl)cc2)c1C(=O)/C=C/c1ccc(C(F)(F)F)cc1 | 1.41 µM | 3.48 µM | 0.659 µM | 3.57 µM | 0.404 µM | 1.56 µM | 0.619 µM | 3.63 µM | 1.47 µM | 2.79 µM | 1.15 µM | 2.62 µM | 0.25 µM | 2.26 µM | 0.251 µM | 0.761 µM | 0.264 µM | 0.865 µM | 0.939 µM | 2.29 µM
CC(C)=CCC/C(C)=C/CC/C(C)=C/CSc1ccccc1C(=O)O | 28.9 µM | > 89.4 µM and 43.3 µM | 33 µM | > 100 µM and 44.5 µM | 25.6 µM | 66.2 µM | 34.5 µM | > 100 µM and 47.3 µM | 25.2 µM | 60.7 µM and 40 µM |  | 56.4 µM and 51.9 µM | 22.5 µM | 59.1 µM | 20.1 µM | 42.5 µM and > 100 µM | 23.4 µM | 59.9 µM and 44.5 µM |  | 35 µM and 34 µM
COCc1cc(C(=O)Nc2cc([C@H]3CC[C@@H](OC(=O)NC(C)C)C3)[nH]n2)n(C)n1 | 13 µM | > 100 µM | 11.7 µM | 85.3 µM | 24.2 µM | 74.1 µM | > 100 µM | > 100 µM | 13 µM | > 100 µM | 9.58 µM | > 100 µM | 1.32 µM | 9.9 µM | 4.32 µM | 74.7 µM | 8.94 µM | > 100 µM | 11.5 µM | 36.4 µM
O=C(COc1cc(O)c2c(=O)cc(-c3ccccc3)oc2c1)Nc1ccccc1C(F)(F)F | 1.71 µM | 3.75 µM | 2.6 µM | 7.79 µM | 3.17 µM | > 100 µM | 3.45 µM | 22.5 µM | 2.94 µM | 9.13 µM | 4.02 µM | > 100 µM | 4.44 µM | > 100 µM | 3.56 µM | > 100 µM | 2.01 µM | 4.45 µM | 6.58 µM | > 100 µM
Cc1cc(N2CCOCC2)nc(N[C@@H]2CCC[C@H](Nc3ccnc4cc(Cl)ccc34)C2)n1 | 3.31 µM | 8.56 µM | 1.84 µM | 5.14 µM | 1.95 µM | 3.67 µM | 2.59 µM | 8 µM | 1.52 µM | 2.97 µM | 2.48 µM | 8.68 µM | 1.05 µM | 3.83 µM | 2.07 µM | 5.36 µM | 2.1 µM | 4.4 µM | 1.82 µM | 3.43 µM
C[As](C)SCC(COC(=O)C(Cl)c1ccccc1)OC(=O)C(Cl)c1ccccc1 (stereo not drawn) | 3.84 µM | 15.2 µM | 3.4 µM | 46.5 µM | 0.139 µM | 1.44 µM | 2.76 µM | 16.8 µM | 7.79 µM | 29.1 µM | 2.48 µM | 10.9 µM | 1.41 µM | 5.84 µM | 0.491 µM | 28.2 µM | 3.42 µM | 31.6 µM | 3.19 µM | 52.9 µM
Oc1ccc(-c2nc3ccccc3s2)cc1CN(Cc1ccccn1)Cc1ccccn1 | 0.833 µM | 18.5 µM | 4.66 µM | 39.4 µM | 1.8 µM | 7.77 µM | 0.359 µM | 4.22 µM | 0.468 µM | 6.87 µM | 1.7 µM | 14.4 µM | 2.14 µM | > 100 µM | 1.06 µM | 14.7 µM | 0.76 µM | 17.6 µM | 1.24 µM | 6.66 µM
Cc1nc(-c2cn3c(n2)-c2ccc(-c4cnn(C(C)(C)C(N)=O)c4)cc2OCC3)n(C(C)C)n1 | 0.332 µM and 0.392 µM | 16.8 µM and > 10 µM | 0.147 µM and 0.169 µM | 13 µM and > 10 µM |  | 3.12 µM and > 10 µM | 8.25 µM and > 7.21 µM | > 83.1 µM | 0.894 µM and 0.838 µM | 16.7 µM and > 10 µM | 1.54 µM and 1.04 µM | > 100 µM | 4.97 µM and 8.69 µM | 26.1 µM and > 10 µM | 8.08 µM and 3.48 µM | > 100 µM | 0.68 µM and 1.51 µM | 25.4 µM and > 10 µM | 0.321 µM and 0.246 µM | 3.64 µM and 4.39 µM
C#CCSc1cc(Cl)c(C)cc1S(=O)(=O)Nc1nc2ccccc2o1 | 31.8 µM | > 100 µM | 44.2 µM | > 100 µM | 28.1 µM | 73.5 µM | 42.9 µM | > 100 µM | 25.5 µM | 61.2 µM | 43.5 µM | > 100 µM | 35.6 µM | > 100 µM | 46.7 µM | > 100 µM | 38.5 µM | > 100 µM | 25.5 µM | 61.9 µM
C#Cc1c(/C=C/C(=O)OCC)ccc2ccccc12 | 30.4 µM | > 100 µM | 27.2 µM | 83.2 µM | 13.1 µM | 41.2 µM | 21.3 µM | 59.2 µM | 13.3 µM | 45 µM | 13.3 µM | 39.4 µM | 3.94 µM | 17 µM | 32.2 µM | > 100 µM | 11.2 µM | 31.7 µM | 11.6 µM | 27.5 µM
O=c1cc(-c2cccc3c2Sc2ccccc2S3)oc(N2CCOCC2)c1 | 10.4 µM | 26.7 µM | 3.08 µM | 19.5 µM | 8.81 µM | 24.4 µM | 12.8 µM | 42.9 µM | 11.5 µM | 24.9 µM | 6.17 µM | 21.8 µM | 4.21 µM | 27.3 µM | 12.3 µM | 26.8 µM | 8.94 µM | 21.7 µM | 6.55 µM | 22.1 µM
CS(=O)(=O)CCc1cccc(C(=O)c2cnn(-c3ccc(F)cc3)c2N)c1 | > 25 µM | > 25 µM | > 25 µM | > 25 µM | > 25 µM | > 25 µM | > 25 µM | > 25 µM | > 25 µM | > 25 µM | > 25 µM | > 25 µM | > 25 µM | > 25 µM | > 25 µM | > 25 µM | > 25 µM | > 25 µM | > 25 µM | > 25 µM
Cc1csc(/C=C/C(=O)c2nnn(-c3ccnc4c(C(F)(F)F)cccc34)c2C)c1 | 39.7 µM | > 100 µM | > 100 µM | > 100 µM | > 100 µM | > 100 µM | 47.7 µM | > 100 µM | > 100 µM | > 100 µM | 25 µM | > 100 µM | 23 µM | > 100 µM | > 100 µM | > 100 µM | 39.2 µM | > 100 µM | 62.2 µM | > 100 µM
CN(C)CCNC(=O)c1cccc(N(C)C(=O)c2ccccc2)c1[N+](=O)[O-] |  | > 100 µM |  | > 100 µM |  | > 100 µM |  | > 100 µM |  | > 100 µM |  | > 10 µM |  | > 100 µM |  | > 100 µM |  | > 100 µM |  | > 100 µM
COc1cccc(NC(=O)c2sc3nc(C)c(C(O)c4ccccc4)cc3c2N)c1 (stereo not drawn) | 0.402 µM | 21 µM | 0.222 µM | 3.21 µM | 0.58 µM | 27.4 µM | 0.245 µM | 0.941 µM | 0.276 µM | 6.82 µM | 0.421 µM | 17.6 µM | 0.0503 µM | 22.1 µM | 0.228 µM | 27.1 µM | 0.289 µM | 22.3 µM | 0.503 µM | 17.3 µM
CNC(=O)c1ccccc1Nc1nc(Nc2cc(OC)c(OC)c(OC)c2)ncc1Br | 0.0354 µM | 17.5 µM | 0.0259 µM | 0.569 µM | 0.0266 µM | 1.79 µM | 0.0496 µM | 1.81 µM | 0.0282 µM | 0.868 µM | 0.0366 µM | 3.3 µM | 0.0254 µM |  | 0.0241 µM | 5.76 µM | 0.0426 µM | 3.38 µM | 0.0255 µM | 1.64 µM
Nc1nc2c(ncn2C2C=CC(CO)C2)c(=O)[nH]1 (stereo not drawn) |  | > 100 µM |  | > 100 µM |  | > 100 µM |  | > 100 µM |  | > 100 µM |  | > 100 µM |  | > 100 µM |  | > 100 µM |  | > 100 µM |  | > 100 µM
CCC(=C/[C@H](C)C/C=C/C(C)=C/[C@@H](C)C(=O)[C@@H](C)[C@H](O)[C@@H](C)CC)/C=C/[C@@H]1OC(=O)C=C[C@H]1C | < 0.01 µM | 1.86 µM | < 0.01 µM | 1.95 µM | < 0.01 µM | 0.0157 µM | < 0.01 µM | 2.17 µM | < 0.01 µM |  | < 0.01 µM | 1.41 µM | < 0.01 µM | 0.115 µM | < 0.01 µM | 1.43 µM | < 0.01 µM |  | < 0.01 µM | 
